Results reported in patent publication US6991902B2, “Nucleobase heterocyclic combinatorialization” (ISIS Pharmaceuticals, Inc., priority 1997, dated 2006).

Legend:
Conditions in all cases: deblocked single compounds
Klebsiella pneumoniae = assay: Antimicrobial assay (MIC), Klebsiella pneumoniae; assay type: cell-based
Streptococcus pyogenes = assay: Antimicrobial assay (MIC), Streptococcus pyogenes; assay type: cell-based
Entercoccus hirae = assay: Antimicrobial assay (MIC), Entercoccus hirae; assay type: cell-based
Staphylococcus aureus = assay: Antimicrobial assay (MIC), Staphylococcus aureus; assay type: cell-based
Procedure: In this assay, the strain S. aureus ATCC 25923 (American Type Culture Collection) is used in the bioassay. To initiate the exponential phase of bacterial growth prior to the assay, a sample of bacteria is grown overnight at 37° C. in typtocase soy broth (BBL). This bacteria is then used to reinoculate sample wells of 96-well microtiter plates. The assays are carried out in the 96-well microtiter plates in 150 μL volume with approximately 1×10^6 cells per well.
(§1) Bacteria in typtocase soy broth (75 μL) is added to the compound mixtures in solution in 75 μL water/4% DMSO in the individual well of the microtiter plate. Final concentrations of the compound mixtures are 25 μM, 10 μM and 1 μM. Each concentration of the compound mixtures are assayed in triplicate. The plates are incubated at 37° C. and growth monitored over a 24 hour period by measuring the optical density at 595 nm using a BioRad model 3550 UV microplate reader. The percentage of growth relative to a well containing no compound is determined. Ampicillin and tetracycline antibiotic positive controls are concurrently tested in each screening assay.

Escherichia coli = assay: Antimicrobial assay (MIC), Escherichia coli; assay type: cell-based
E. coli imp- = assay: Antimicrobial assay (MIC), E. coli imp-; assay type: cell-based, Escherichia coli
Procedure: In this assay, the strain E. coli imp- obtained from Spenser Bensen (Sampson., B. A., Misra, R. & Benson, S. A. (1989), Genetics, 122, 491-501, Identification and characterization of a new gene of Escherichia coli K-12 involved in outer membrane permeability) is used. To initiate the exponential phase of bacterial growth prior to the assay, a sample of bacteria is grown overnight at 37° C. in Luria broth. This bacteria is then used to reinoculate sample wells of 96-well microtiter plates. The assays are carried out in the 96-well microtiter plates in 150 μL volume with approximately 1×10^6 cells per well.
as §1, with “Luria” for “typtocase soy”, “water” for “water/4% DMSO”, “Ampicillin and tetracycline antibiotic positive controls are concurrently tested in each screening assay.” left out
Libraries in accordance with the present invention have been tested for antibacterial activity utilizing assays that determine the minimum inhibitory concentration (MIC). […] Activity has been detected in a number of libraries of the present invention.

Substance | minimum inhibitory activity, Klebsiella pneumoniae (Klebsiella pneumoniae) [µM] | minimum inhibitory activity, Streptococcus pyogenes (Streptococcus pyogenes) [µM] | minimum inhibitory activity, Entercoccus hirae (Entercoccus hirae) [µM] | minimum inhibitory activity, Staphylococcus aureus (Staphylococcus aureus) [µM] | minimum inhibitory activity, Escherichia coli (Escherichia coli) [µM] | minimum inhibitory activity, E. coli. imp- (E. coli imp-) [µM]
6-[(2-aminobenzothiazole acetyl)piperazinyl]-2-[(N-m-triflouromethylbenzyl)piper-azinyl]-N9-[(N′-t-Boc-N″-acetyl)piperazinyl]purine [Compound 50] | 3 to 6 | 3 to 6 | 3 | 3 to 6 | >100 | 3
6-[(2-Aminobenzothiazole acetyl)piperazinyl]-2-[(m-chlorobenzyl)-piperazinyl]-N9-[(N′-t-Boc-N″-acetyl)piperazinyl]purine [Compound 46] | 3 to 6 | 3 to 6 | 3 to 6 | 3 to 6 | 50 to 100 | 3 to 6
